# Reference: article PMC8434109, “Synthesis and Biological Activity of a Cytostatic Inhibitor of MLLr Leukemia Targeting the DOT1L Protein” (Molecules, 2021)
# System: HOXA9 and MEIS1 expression in MV4-11, MOLM13 and KOPN8 cells
# Experiment: Quantitative real-time PCR of MLL target genes
# Format: cell-based, human
# Settings: 0.1, 0.32, 1 and 3.2 µM; 6 days MV4-11 and MOLM13, 10 days KOPN8
# Protocol: We then investigated the impact of the inhibition of H3K79me2 in MLLr cells on the expression of the pro-leukemic genes, HOXA9 and MEIS1. These are MLL target genes and have been characterized for being activated by the aberrant H3K79 methylation by DOT1L recruited at these genes by the MLL-fusion proteins and inhibited by DOTL1 inhibitors. […] The difference in kinetics is related to the doubling time of the cells (Table 1), indeed, we measured that the doubling time of MV4-11 is 12 h while the doubling time for MOLM-13 is 22 h.
# The non-adherent cell lines MV4-11, MOLM-13, and KOPN8 exponentially growing cells were plated in 12-well plates (1 plate for each experiment) at a rate of 500,000 cells per well at a final volume of 2 mL. The cells were incubated in the presence of increasing inhibitor concentrations (0.1, 0.32, 1, 3.2, 10 µM). […]
# Total RNA was isolated from the cell pellet of at least 1 × 10^6 cells using the RNAeasy mini kit (Cat No.: 74106, Qiagen) according to the manufacturer’s instructions. […] Complementary DNA (cDNA) was diluted at 1:10 and used as a template in quantitative real-time PCR (RT-qPCR) using the SYBR Green Master Kit (ref. 047516001, Roche, Boulogne-Billancourt, France) and LightCycler®480 (Roche, Boulogne-Billancourt, France) System according to the manufacturer’s instructions. […]
smiles,measurement,value
"CC(C)[C@H](CCCNC(=O)Nc1ccc(C(C)(C)C)cc1)N[C@H]1C[C@@H](n2cnc3c(N)ncnc32)[C@H](O)[C@@H]1O [Dia2, 1-((S)-4-(((1S,2R,3S,4R)-4-(6-amino-9H-purin-9-yl)-2,3-dihydroxycyclopentyl)amino)-5-methylhexyl)-3-(4-(tert-butyl)phenyl)urea]",MEIS1 and HOXA9 expression,decrease in a dose-dependent manner
